Experimental data from the NIST ThermoML archive (doi:10.1021/acs.jced.5b00662).
Several values for one entry are separate records, joined by “and”; a condition that tells them apart may be missing. Identical values can stand only once. Numbers after ± are expanded uncertainties.

Legend:
[1] = 101.33 kPa, Liquid; for speed of sound: Sing-around technique in a fixed-path interferometer; for mass density: Vibrating tube method; for viscosity: Concentric cylinders viscometry
[2] = refractive index (Na D-line) (dimensionless); details: 101.33 kPa, Liquid, Standard Abbe refractometry

CCOCCOCCOCC [diethylene glycol diethyl ether]
Details | mass density, [1] | refractive index, [2] | speed of sound, [1] [m/s] | viscosity, [1] [mPa·s]
283.15 K | 917 ± 4.1 kg/m3 | 1.41658 ± 0.0007 | 1303.4 ± 2.3 | –
288.15 K | 914.4 ± 4.1 kg/m3 and 912.2 ± 4.1 kg/m3 | 1.41428 ± 0.0007 | 1283.2 ± 2.3 | 1.483 ± 0.062
293.15 K | 909.6 ± 4.1 kg/m3 and 907.4 ± 4.1 kg/m3 | 1.41202 ± 0.0007 | 1263.1 ± 2.3 | 1.353 ± 0.056
298.15 K | 902.6 ± 4.1 kg/m3 and 904.7 ± 4.1 kg/m3 | 1.40978 ± 0.0007 | 1243.3 ± 2.3 | 1.254 ± 0.052
303.15 K | 897.7 ± 4.1 kg/m3 and 899.8 ± 4.1 kg/m3 | 1.40749 ± 0.0007 | 1223.4 ± 2.3 | 1.156 ± 0.048
308.15 K | 892.9 ± 4.1 kg/m3 and 895 ± 4.1 kg/m3 | – | 1203.9 ± 2.3 | 1.067 ± 0.044
313.15 K | 888.1 ± 4.1 kg/m3 and 890.1 ± 4.1 kg/m3 | 1.40296 ± 0.0007 | 1184.1 ± 2.3 | 0.9874 ± 0.041
318.15 K | 885.3 ± 4.1 kg/m3 | – | – | 0.916 ± 0.038
323.15 K | 878.4 ± 4.1 kg/m3 and 880.4 ± 4.1 kg/m3 | 1.39838 ± 0.0007 | 1145.1 ± 2.3 | 0.852 ± 0.036
328.15 K | 875.6 ± 4.1 kg/m3 | – | – | 0.795 ± 0.033
333.15 K | 868.7 ± 4 kg/m3 and 870.7 ± 4.1 kg/m3 | 1.39382 ± 0.0007 | 1107.9 ± 2.3 | 0.744 ± 0.031
338.15 K | 865.9 ± 4 kg/m3 | – | – | 0.699 ± 0.029
343.15 K | 861 ± 4 kg/m3 and 858.9 ± 4 kg/m3 | 1.38929 ± 0.0007 | 1071.6 ± 2.3 | 0.658 ± 0.028
348.15 K | 856.1 ± 4 kg/m3 | – | – | 0.621 ± 0.026
353.15 K | 851.2 ± 4 kg/m3 | 1.38474 ± 0.0007 | – | 0.587 ± 0.025
358.15 K | 846.3 ± 4 kg/m3 | – | – | 0.556 ± 0.023
363.15 K | 841.4 ± 4 kg/m3 | – | – | 0.526 ± 0.022
368.15 K | 836.5 ± 4 kg/m3 | – | – | 0.498 ± 0.021
373.15 K | 831.6 ± 4 kg/m3 | – | – | 0.47 ± 0.02

OCCOCCO [diethylene glycol]
Details | mass density, [1] | refractive index, [2] | speed of sound, [1] [m/s] | viscosity, [1] [mPa·s]
283.15 K | 1123.3 ± 2 kg/m3 | 1.45019 ± 0.00061 | 1615.9 ± 1.6 | –
288.15 K | 1121.4 ± 2 kg/m3 and 1119.8 ± 2 kg/m3 | 1.4486 ± 0.00061 | 1603.6 ± 1.6 | 47.14 ± 1.9
293.15 K | 1117.8 ± 2 kg/m3 and 1116.2 ± 2 kg/m3 | 1.44702 ± 0.00061 | 1591.4 ± 1.6 | 36.02 ± 1.5
298.15 K | 1112.7 ± 2 kg/m3 and 1114.2 ± 2 kg/m3 | 1.4454 ± 0.00061 | 1579.2 ± 1.6 | 28.23 ± 1.1
303.15 K | 1109.1 ± 2 kg/m3 and 1110.6 ± 2 kg/m3 | 1.44379 ± 0.00061 | 1566.9 ± 1.6 | 22.48 ± 0.91
308.15 K | 1105.5 ± 2 kg/m3 and 1107 ± 2 kg/m3 | – | 1554.9 ± 1.6 | 18.18 ± 0.74
313.15 K | 1101.9 ± 2 kg/m3 and 1103.4 ± 2 kg/m3 | 1.44068 ± 0.00061 | 1542.8 ± 1.6 | 14.85 ± 0.6
318.15 K | 1099.7 ± 2 kg/m3 | – | – | 12.4 ± 0.5
323.15 K | 1094.7 ± 2 kg/m3 and 1096.1 ± 2 kg/m3 | 1.43745 ± 0.00061 | 1518.8 ± 1.6 | 10.42 ± 0.42
328.15 K | 1092.5 ± 2 kg/m3 | – | – | 8.849 ± 0.36
333.15 K | 1087.4 ± 2 kg/m3 and 1088.8 ± 2 kg/m3 | 1.43424 ± 0.00061 | 1494.5 ± 1.6 | 7.57 ± 0.31
338.15 K | 1085.2 ± 2 kg/m3 | – | – | 6.561 ± 0.27
343.15 K | 1081.5 ± 2 kg/m3 and 1080 ± 2 kg/m3 | 1.43105 ± 0.00061 | 1470.1 ± 1.6 | 5.718 ± 0.23
348.15 K | 1077.8 ± 2 kg/m3 | – | – | 5.019 ± 0.2
353.15 K | 1074.1 ± 2 kg/m3 | 1.42786 ± 0.00061 | – | 4.429 ± 0.18
358.15 K | 1070.3 ± 2 kg/m3 | – | – | 3.944 ± 0.16
363.15 K | 1066.6 ± 2 kg/m3 | – | – | 3.527 ± 0.14
368.15 K | 1062.8 ± 2 kg/m3 | – | – | 3.169 ± 0.13
373.15 K | 1059 ± 2 kg/m3 | – | – | 2.871 ± 0.12

OCCOCCOCCO [triethylene glycol]
Details | mass density, [1] | refractive index, [2] | speed of sound, [1] [m/s] | viscosity, [1] [mPa·s]
283.15 K | 1131.3 ± 2 kg/m3 | 1.45944 ± 0.00061 | 1658.7 ± 1.6 | –
288.15 K | 1128.6 ± 2 kg/m3 and 1127.4 ± 2 kg/m3 | 1.45774 ± 0.00061 | 1642.8 ± 1.6 | 63.57 ± 2.6
293.15 K | 1124.6 ± 2 kg/m3 and 1123.5 ± 2 kg/m3 | 1.4561 ± 0.00061 | 1627.2 ± 1.6 | 48.05 ± 1.9
298.15 K | 1119.7 ± 2 kg/m3 and 1120.7 ± 2 kg/m3 | 1.45447 ± 0.00061 | 1611.5 ± 1.6 | 37.27 ± 1.5
303.15 K | 1115.8 ± 2 kg/m3 and 1116.8 ± 2 kg/m3 | 1.45283 ± 0.00061 | 1596.2 ± 1.6 | 29.41 ± 1.2
308.15 K | 1111.9 ± 2 kg/m3 and 1112.9 ± 2 kg/m3 | – | 1581.1 ± 1.6 | 23.6 ± 0.95
313.15 K | 1108 ± 2 kg/m3 and 1109 ± 2 kg/m3 | 1.44955 ± 0.00061 | 1566 ± 1.6 | 19.16 ± 0.78
318.15 K | 1105.1 ± 2 kg/m3 | – | – | 15.86 ± 0.64
323.15 K | 1100.2 ± 2 kg/m3 and 1101.2 ± 2 kg/m3 | 1.44626 ± 0.00061 | 1536.3 ± 1.6 | 13.25 ± 0.54
328.15 K | 1097.3 ± 2 kg/m3 | – | – | 11.19 ± 0.45
333.15 K | 1092.4 ± 2 kg/m3 and 1093.4 ± 2 kg/m3 | 1.44293 ± 0.00061 | 1506.8 ± 1.6 | 9.528 ± 0.38
338.15 K | 1089.5 ± 2 kg/m3 | – | – | 8.221 ± 0.33
343.15 K | 1085.6 ± 2 kg/m3 and 1084.5 ± 2 kg/m3 | 1.43956 ± 0.00061 | 1477.5 ± 1.6 | 7.137 ± 0.29
348.15 K | 1081.7 ± 2 kg/m3 | – | – | 6.243 ± 0.25
353.15 K | 1077.8 ± 2 kg/m3 | 1.43622 ± 0.00061 | – | 5.487 ± 0.22
358.15 K | 1073.8 ± 2 kg/m3 | – | – | 4.874 ± 0.2
363.15 K | 1069.8 ± 2 kg/m3 | – | – | 4.346 ± 0.18
368.15 K | 1065.9 ± 2 kg/m3 | – | – | 3.896 ± 0.16
373.15 K | 1061.9 ± 2 kg/m3 | – | – | 3.515 ± 0.14
